The text below walks through data of a melting point compilation (Tetko et al.; mined from patent text by program, amines drawn as free bases though some values may be those of a salt).

Some results are limits rather than exact numbers.

As for `O=C(c1ccc(Cl)c(Cl)c1)N1CCCC(c2cccs2)=N1`, the melting point (usually the temperature of the solid-liquid transition) fell in the range of 124 to 125 °C.

`CCOC(=O)Cc1cccc2c(-c3ccc(N)cc3)nccc12`: the melting point was in the range of 129 to 132 °C. The compound `CCN1CCc2ccc(C(=O)CCC(=O)N3CCC(c4ccc(Cl)cc4)CC3)cc2CC1` had a melting point of 156 to 157 °C. Consider `CCOC(=O)c1ccc(OCCC2CCN(c3ccc(C)nn3)CC2)s1`, for which the melting point was found to be 114 °C. The compound `CC(=O)Nc1ccc(C#CCCN2CC=C(c3ccccc3)CC2)cc1` returned a melting point of 172 to 173 °C.

The compound `CCCCCCCCCCCCCCCCOCC(CO)CF` (configuration not stated) displayed a melting point of 34 °C. `Cc1cccc(C)c1C(=O)Nc1ccc(OCCN2CCOCC2)cc1` came in with a melting point of 177 to 190 °C. In the case of `Nc1cnccc1Oc1ccc(Cl)cc1`, the melting point was 104 to 106 °C.

In turn, `N#Cc1cc(F)c(N)c(Br)c1F` yielded a melting point of 106 to 108 °C. With `CC(=O)OCCC1CC(=O)N1` (configuration not stated), the melting point was 44 to 47 °C. For the compound `CC(C)(C)c1ccc(C#N)cc1N`, the melting point lay in the range of 94.5 to 95 °C. `CN(C(=O)Nc1ccc2c(ccn2C)c1)c1cccnc1` came in with a melting point of 58 to 60 °C.

Turning to `CN(CC(N)=O)C(=O)CCl`, the melting point was 85 to 86 °C. `O=C(NCC1CC1)NCC1CC1` had a melting point of 127 to 130 °C. For the compound `CCS(=O)(=O)NC(=O)c1cccc(N)c1`, the melting point lay in the range of 129 to 132 °C. For the compound `COC12CC(C(C)COC(=O)c3[nH]c(C)cc3C)CN(C)C1Cc1cn(C)c3cccc2c13` (configuration not stated), the melting point fell in the range of 128 to 130 °C. With `Cn1cc(Br)cc(Nc2ccc(N3CCN(C(=O)OC(C)(C)C)CC3=O)cn2)c1=O`, the melting point is 130 to 132 °C.

For the compound `CN(C)Cc1cccc(C(F)(F)C(F)(F)c2ccccc2)c1CN`, the melting point lay within 71 to 83 °C.

The compound `CC(=O)c1c(C)[nH]c(C2CCCCC2)c1C` had a melting point of 186 to 188 °C. To `COc1ccc2c(c1)CCC(C=O)=C2C` belongs 70 to 72 °C. Next, `Nc1ncccc1OCc1c(Cl)cccc1Cl`: 141 to 142 °C; `O=c1c2cccc3ncc(c(=O)n1CCCNS(=O)(=O)C(F)(F)F)n32`: 124 to 125 °C; `O=C(O)c1cc(-n2c(-c3ccccc3)cc3c2CCc2cc(Cl)ccc2-3)ccc1O`: 249 to 251 °C. `CC(Oc1ccc(Cl)cc1)c1nnc(N)s1` (configuration not stated): the melting point lay in the range of 162 to 166 °C. In turn, `CC(=O)c1cc(C)cc(NC(=O)c2nnnn2Cc2ccccc2)c1O` displayed a melting point of 183 to 184 °C.

The compound `Cn1c(CCN2CCN(c3cccc(C(F)(F)F)c3)CC2)nc2cc(Br)c3ccccc3c21` yielded a melting point of 165 to 166 °C.

For the compound `CCCCCN1C(=O)C(CCC(=O)OC)(NC(=O)C2CCc3ccccc3C2)c2ccccc21` (configuration not stated), the melting point lay in the range of 172 to 179 °C. Compound `COc1cc2c(cc1OC)[C@@H]1CN(C)CC[C@@H]1N=C2c1ccc(NC(=O)c2ccccc2)cc1` (relative stereo) gave a melting point of 240 to 245 °C. To `COc1ccc(-c2cc(=O)n(Cc3ccccc3)nc2-c2ccc(OC)c(F)c2)cc1` belongs 137 to 138 °C; to `O=C1N(c2ccccc2)N=C(Nc2ccccc2)C1(Br)Br`, 190 °C; to `O=c1ccn(-c2cccc(C(F)(F)F)c2)nc1-n1ccnc1-c1ccccc1`, 204 to 205 °C. For the compound `O=C(O)c1ccc(-c2cnc(-c3ccc(Cl)cc3)o2)cc1`, the melting point lay in the range of 268 to 270 °C. As for `O=Cc1csc(NCc2ccccc2)n1`, the melting point fell in the range of 162 to 165 °C. `COc1ccc(-c2cn(Cc3ccccc3)c(=O)c3ccccc23)cc1OC` showed a melting point of 174 to 176 °C. For `CSc1nn2c(N)cc(C)nc2c1S(=O)(=O)c1cccs1`, the melting point was > 230 °C. Next, `CC(C)(Oc1ccc(Cl)cc1)C(=O)OCc1ncc(C(=O)O)s1`: 124 °C. Turning to `O=S(=O)(Nc1cccc(CCOCc2csc(-c3ccc(C(F)(F)F)cn3)n2)c1)C(F)(F)F`, the melting point fell in the range of 116 to 117 °C. `COC(=O)c1cc(N2C(=O)C(=O)N(C(C)C)C2=O)c(F)cc1Cl`: the melting point lay in the range of 106 to 108 °C. `O=C(c1ccn2c1CSC2c1cccnc1)c1c[nH]c2cc(Cl)ccc12` (configuration not stated): the melting point lay in the range of 263 to 265 °C. Next, `C[C@]12CC(I)C(=O)C=C1CC[C@@H]1[C@@H]2CC[C@]2(C)C(=O)CC[C@@H]12` (some centres not stated): 92 °C; `Cc1nnc(Cl)c2cc3n(c12)CCCC3`: 272 to 274 °C. Take `CC(C)Nc1nc(Br)cnc1OCC(O)CBr` (configuration not stated): the melting point was in the range of 108 to 109 °C.

As to `Cc1cc(-c2ccc(Cl)cc2)nc(-c2cccc(-c3cccc(S(N)(=O)=O)c3)c2)n1`, the melting point was found to be 221 °C. Turning to `CN(C)Cc1cccc(CSCCNc2ncc(Cc3cccnc3)c(=O)[nH]2)c1`, the melting point lay in the range of 143 to 145 °C. `CC(C)CCN1CNC(=O)C12CCN(Cc1ccccc1)CC2` displayed a melting point of 139 to 140 °C. The compound `CCn1cc(CN(C(=O)C2CCCc3cc(OCCO)ccc32)c2ccc(C(C)C)cc2)cn1` (configuration not stated) had a melting point of 137 °C. As to `O=C(O)c1cc(Br)c(O)c(Br)n1`, the melting point was 195 to 197 °C. With `CNC(=O)C1CCCCN1C(=O)OC(C)(C)C` (configuration not stated), the melting point lay within 83 to 83.5 °C. To `CCN(CC)c1ccc2nc3c4ccccc4c(=Nc4cc(C)nc5ccccc45)cc-3oc2c1` belongs 229 to 230 °C; to `O=C1c2ccccc2C(=O)N1OCCCN1CCN(c2nsc3ccccc23)CC1`, 143 to 144 °C; to `O=C1CCC(N2Cc3c(OCc4ccc(CCN5CCOCC5)cc4)cccc3C2=O)C(=O)N1` (configuration not stated), 230 to 232 °C. `COc1cc2sc(C3=NNC(=O)CC3C)cc2cc1OCCCN1CCCCC1` (configuration not stated) gave a melting point of 198 to 200 °C. To `COc1cc(OC)nc(CC#N)n1` belongs 65 to 67 °C. Compound `O=C(O)Cc1ccc(CCNC(=O)c2ccccc2)cc1` came in with a melting point of 157 to 158 °C.

As for `Oc1ccc(-c2ccc(OC(F)(F)F)cc2)cc1`, the melting point was determined as 140 °C. Regarding `O=S(=O)(Nc1cccc(CCOCc2ccc(-c3ccc(Cl)c(Cl)c3)cc2F)c1)C(F)(F)F`, the melting point lay in the range of 102 to 104 °C. As for `CC(C)(C(=O)Nc1ccc(Cl)cc1)/C(F)=C\F`, the melting point came to 100 °C. On to `CC(CCC(O)C(C)(C)O)C1CCC2C3=CC=C4CC(O)CCC4(C)C3CCC21C` (configuration not stated), for which the melting point was 216 to 218 °C.

Take `N#Cc1cnc2scc(Br)c2c1Br`: the melting point lay within 204 to 206 °C.

Turning to `CC1(C)CN(C(=O)Nc2cccnc2)c2cc(C#N)ccc21`, the melting point is 220 to 222 °C. `CCCc1ccc(O)c2c(=O)cc(-c3nnn[nH]3)oc12` yielded a melting point of 242 to 245 °C. Next, `COc1cn(-c2ccc(-c3ccccn3)cc2F)nc(-c2ccnn2-c2ccccc2)c1=O`: 206 to 208 °C; `CN(C)c1ccc2cc(C#N)oc2c1`: 70 to 71 °C.

The compound `CCOC(=O)NNS(=O)(=O)c1ccc(C)cc1` yielded a melting point of 105 to 106 °C. Next, `Cc1ccc(N(c2ccc(C)cc2)c2c(F)cc(F)c(F)c2F)cc1`: 95 °C; `CCCCCCC1CCC2C(CCC3CC(=O)CCC32)C1` (configuration not stated): 49 °C; `O=C(O)c1ccc2c(c1)C(=O)C1(CC1)O2`: 215 to 228 °C. To `Cn1cc([N+](=O)[O-])nc1C=O` belongs 129 °C; to `COC(=O)n1c(SCc2nccc(SCCN3CCOCC3)c2C)nc2ccccc21`, 151 to 153 °C. `COc1ccc(C=Nc2ccc(S(=O)(=O)NC(C)(C)C)cc2)cc1F` gave a melting point of 129 to 131 °C.

Turning to `CCC(C#N)c1cccc(C(=O)c2cc3cc(C(=O)OC)sc3s2)c1` (configuration not stated), the melting point amounted to 130 °C. On to `CC(C)Oc1cn(-c2cccc(C(F)(F)F)c2)nc(-c2ccnn2-c2ccccc2)c1=O`, for which the melting point was 137 to 139 °C. `Cc1c(Cl)cccc1N=Cc1ccccc1Cl` registered a melting point of 83 to 85 °C. As to `O=[N+]([O-])c1ccccc1Nc1ccccc1F`, the melting point lay within 58 to 59 °C. Next, `COc1ccc(CCNC(=O)CNc2ccc(C)cc2)cc1OC`: 87 to 88.5 °C; `CCOC(=O)c1cnc(Nc2cccc(C(F)(F)F)c2)[nH]c1=O`: 229 to 230 °C.

The compound `CCCCc1ccc(OC)c(-c2csc(N)n2)c1` came in with a melting point of 48 °C.

On to `NC(=S)c1cnn(-c2c(Cl)cc(C(F)(F)F)cc2Cl)n1`, for which the melting point fell in the range of 214 to 218 °C. In turn, `N#Cc1ccc(NN)cc1F` registered a melting point of 136 °C. Next, `CC(=O)Nc1cccc(C(c2cccc(NC(C)=O)c2)(C(F)(F)F)C(F)(F)F)c1`: 309 to 311 °C; `COc1cc(Nc2c(C#N)cnc3cc(-c4cc(CN5CCOCC5)c(CN5CCOCC5)s4)c(OC)cc23)c(Cl)cc1Cl`: 120 to 124 °C.

With `CCOC(=O)C1(C(C)C)OC2(O)C3CCCN3C(=O)C(Cc3ccccc3)N2C1=O` (configuration not stated), the melting point lay in the range of 152 to 154 °C. The compound `O=C(O)CCCc1cccc2c1OC=CO2` yielded a melting point of 75 to 76 °C. On to `O=C(Cn1c(-c2nonc2NCCCO)nc2ccccc21)c1ccc(Cl)cc1`, for which the melting point lay within 166 to 169 °C. Next, `NC(=O)[C@H]1CCCN2CC[C@@H]3c4cc(Cl)ccc4N[C@@H]3[C@H]12` (racemic): 270 °C. In turn, `CN1CCC(c2cc3c(N)cccc3c(=O)[nH]2)CC1` showed a melting point of 222 to 224 °C. Turning to `CSc1ncc2ccc(=O)n(C)c2n1`, the melting point lay in the range of 192 to 193 °C. The compound `NS(=O)(=O)Cc1ccc2[nH]cc(CCN3C(=O)c4ccccc4C3=O)c2c1` came in with a melting point of 186 to 188 °C. To `COCC(COC)Nc1c(C)nn2c(-c3ccc(Cl)cc3Cl)cccc12` belongs 86.9 to 90 °C; to `O=P(O)(O)C(O)(Cc1c(Cl)cccc1Cl)P(=O)(O)O`, 226 to 228 °C. Compound `O=C1c2ccccc2C(=O)N1C(Cc1ccccc1)C1CC(Cc2ccccc2)=NO1` (configuration not stated) displayed a melting point of 134 to 136 °C. Next, `O=C(N[C@@H]1CCc2ccccc21)c1nn(-c2ccc(F)cc2F)c2c1C1CCC2C1` (some centres not stated): 158 to 161 °C.
